Publication PMC9043997, “LEAP2 reduces postprandial glucose excursions and ad libitum food intake in healthy men” (Cell Reports Medicine, 2022)
Where a SMILES comes first, the peptide text is derived from it. Bridges are numbered along the chain shown (N, C = ends).

Legend:
Type in all cases: in vivo, human
healthy men [1] = experiment: Plasma acyl ghrelin during LEAP2 infusion, crossover study; conditions: mean ± SEM
Description: (§1) The infusion was terminated when participants had finished eating.
(§2) For analysis of plasma glucose, blood was distributed in fluoride heparin-coated tubes, centrifuged immediately for 30 s (12,100 g, room temperature) and measured bedside by the glucose oxidase method (YSI 2900 Biochemistry Analyzer; YSI Incorporated, Yellow Springs, Ohio, USA). For analysis of LEAP2, blood was collected in chilled K3EDTA tubes each containing 250 KIU of aprotinin. For analysis of acyl ghrelin, blood was collected in chilled K2EDTA tubes added 20 μL pefabloc (100 mg/mL; Merck Millipore, Burlington, Massachusetts, USA). Subsequently, pefabloc-treated plasma was acidified with HCl (12.5 μL 2M HCl per 500 μL plasma; Merck Millipore, Burlington, Massachusetts, USA). For analysis of glucagon, blood was collected in K2EDTA tubes. For analysis of GH, insulin, C-peptide, free fatty acids, glycerol, triglycerides and acetaminophen (paracetamol), blood was collected in tubes with lithium and heparin. All tubes were immediately cooled on ice, centrifuged for 15 min (2,000 g, 4°C) and stored at −80°C until analysis. LEAP2 concentrations were determined by an in-house radioimmunoassay directed against the N-terminal part of LEAP2. LEAP-2 was used for standards, and the tracer was a peptide composed of the 12 N-terminal amino acids of LEAP2, with a ^125I-labelled tyrosine added to the C-terminal end. The precision and accuracy of the assay were evaluated based on European Medicines Agency's guidelines for bioanalytical assay validation. […] Due to supply chain disruptions from the COVID-19 pandemic, acyl ghrelin was only measured in plasma samples at timepoints 0, 60, 105, 165 and 255 min. […] Plasma GH was measured by Immunodiagnostic system-iSYS assay (IS-3700; IDS Limited, Boldon, UK). The assay is based on chemiluminesence technology and was performed according to the manufacturer’|'s instructions. […] For analysis of glucagon, plasma was extracted in a final concentration of 70% ethanol. Glucagon was measured using a C-terminal directed antiserum (code number 4305) measuring glucagon of pancreatic origin as previously described.[40] […] Plasma insulin and C-peptide were measured using a two-sided electrochemiluminescence immunoassay (Atellica IM Analyzer; Siemens Healthcare, Ballerup, Denmark). Plasma triglycerides and acetaminophen were analyzed by spectrophotometric methods following enzymatic hydrolysis and oxidation (Siemens Atellica CH 930; Siemens Healthcare, Ballerup, Denmark). Plasma concentrations of free fatty acids and glycerol were determined by enzymatic methods modified to run on a COBAS 6000 automatic analyzer (Roche, Rødovre, Denmark) using a NEFA-HR assay (Wako Chemicals, Neuss, Germany) and glycerol assay (Randox Laboratories, Crumlin, UK), respectively.
(§3) Unless otherwise stated, results are presented as mean ± SEM. Baseline values were calculated as a mean of timepoints −35, −10 and 0 min or, when only available −10 and 0 min. Baseline values for the postprandial period were calculated as a mean of timepoint 60 min. Calculations of AUC were based on the trapezoidal rule. AUC values are reported for the period 0 to 255 min. To assess the fasting and postprandial periods separately, AUC values are reported for the periods 0 to 60 min and 60 to 255 min, respectively. Student’s paired t test was used to test for differences in baseline, peak, time to peak, AUC and mean values and ad libitum food intake in men.

healthy men [2] = experiment: Plasma acetaminophen as indirect marker of gastric emptying, crossover study; conditions: healthy men n = 20, iv LEAP2 ~25 pmol/kg/min
Description: as §1
For analysis of plasma glucose, blood was distributed in fluoride heparin-coated tubes, centrifuged immediately for 30 s (12,100 g, room temperature) and measured bedside by the glucose oxidase method (YSI 2900 Biochemistry Analyzer; YSI Incorporated, Yellow Springs, Ohio, USA). For analysis of LEAP2, blood was collected in chilled K3EDTA tubes each containing 250 KIU of aprotinin. For analysis of acyl ghrelin, blood was collected in chilled K2EDTA tubes added 20 μL pefabloc (100 mg/mL; Merck Millipore, Burlington, Massachusetts, USA). Subsequently, pefabloc-treated plasma was acidified with HCl (12.5 μL 2M HCl per 500 μL plasma; Merck Millipore, Burlington, Massachusetts, USA). For analysis of glucagon, blood was collected in K2EDTA tubes. For analysis of GH, insulin, C-peptide, free fatty acids, glycerol, triglycerides and acetaminophen (paracetamol), blood was collected in tubes with lithium and heparin. All tubes were immediately cooled on ice, centrifuged for 15 min (2,000 g, 4°C) and stored at −80°C until analysis. LEAP2 concentrations were determined by an in-house radioimmunoassay directed against the N-terminal part of LEAP2. […] The precision and accuracy of the assay were evaluated based on European Medicines Agency's guidelines for bioanalytical assay validation. […] Due to supply chain disruptions from the COVID-19 pandemic, acyl ghrelin was only measured in plasma samples at timepoints 0, 60, 105, 165 and 255 min. […] Plasma GH was measured by Immunodiagnostic system-iSYS assay (IS-3700; IDS Limited, Boldon, UK). […] Glucagon was measured using a C-terminal directed antiserum (code number 4305) measuring glucagon of pancreatic origin as previously described.[40] […] Plasma insulin and C-peptide were measured using a two-sided electrochemiluminescence immunoassay (Atellica IM Analyzer; Siemens Healthcare, Ballerup, Denmark). Plasma triglycerides and acetaminophen were analyzed by spectrophotometric methods following enzymatic hydrolysis and oxidation (Siemens Atellica CH 930; Siemens Healthcare, Ballerup, Denmark). […]

healthy men [3] = experiment: Plasma glucose and VAS ratings during the pharmacokinetic study
Description: Eight healthy men, recruited among participants in the placebo-controlled, crossover study, were included in an additional clinical study investigating the kinetic parameters of exogenous LEAP2. Each participant underwent a single experimental day with intravenous infusion of LEAP2 (10 min at a rate of ∼101 pmol/kg/min followed by 110 min at ∼25 pmol/kg/min) (see Figure S1B for an overview of the clinical study design). […] Fasting schedule for participants and all instructions from 48 h prior to the experimental day were similar to the placebo-controlled, crossover study. […] LEAP2 infusion was started at timepoint 0 min and discontinued after 120 min. Blood samples were drawn every 15 min from timepoint −30 to 270 min and, additionally, at timepoints 118, 122, 124, 127 and 130 min. Plasma glucose was measured bedside every 15 min from timepoint −30 to 180 min and every 30 min from timepoint 180 to 270 min with a mean concentration of 4.85 ± 0.02 mmol/L. For analytical procedures related to plasma glucose and LEAP2 concentrations, please see the section “Human plasma analyses”. Every 30 min from time −30 to 270 min, participants rated appetite-related sensations on 100 mm VAS[34] with a score (median (interquartile range)) for hunger of 72 (59–79) mm, prospective food consumption 73 (65–82) mm, satiety 22 (14–33) mm, fullness 21 (12–31) mm, comfort 78 (72–90) mm, thirst 78 (71–89) mm and nausea 3.0 (0–9.0).

healthy men [4] = experiment: Plasma insulin, C-peptide and C-peptide/glucose ratio during LEAP2 infusion, crossover study; conditions: mean ± SEM
Description: as §1, §2, §3

healthy men [5] = experiment: Plasma growth hormone during LEAP2 infusion, crossover study; conditions: mean ± SEM
Description: as §1, §2, §3

[6] = healthy men n = 20, LEAP2 day, before infusion
[7] = healthy men n = 20, iv LEAP2 ~25 pmol/kg/min, 0 to 255 min
[8] = healthy men n = 20, iv LEAP2 ~25 pmol/kg/min, fasting period
[9] = healthy men n = 20, iv LEAP2 ~25 pmol/kg/min, liquid mixed meal at 65 min
[10] = healthy men n = 20, iv LEAP2 ~25 pmol/kg/min, postprandial period
[11] = healthy men n = 20, iv LEAP2 ~25 pmol/kg/min, time = 60 min
[12] = 1.5 g acetaminophen in liquid mixed meal at 65 min, marker of gastric emptying, mean ± SEM
[13] = healthy fasting men n = 8, -30 to 270 min, median (interquartile range)

SMILES: CC[C@H](C)[C@@H]1NC(=O)[C@@H]2CSSC[C@@H](C(=O)N[C@@H](CO)C(=O)N[C@@H](CC(C)C)C(=O)N[C@@H](CO)C(=O)N[C@H](C(=O)N[C@@H](C)C(=O)N[C@@H](CCC(N)=O)C(=O)N[C@@H](CCC(=O)O)C(=O)O)C(C)C)NC(=O)[C@H](CCCNC(=N)N)NC(=O)[C@H](CCCNC(=N)N)NC(=O)[C@H](CCCCN)NC(=O)[C@H](CCCNC(=N)N)NC(=O)[C@H](CSSC[C@H](NC(=O)[C@H](CO)NC(=O)[C@H](C)NC(=O)CNC(=O)[C@@H](NC(=O)[C@@H]3CCCN3C(=O)[C@H](CCCNC(=N)N)NC(=O)[C@H](CC(C)C)NC(=O)[C@H](CO)NC(=O)[C@@H](NC(=O)CNC(=O)[C@H](CCCNC(=N)N)NC(=O)[C@H](Cc3c[nH]c4ccccc34)NC(=O)[C@H](Cc3ccccc3)NC(=O)[C@@H]3CCCN3C(=O)[C@@H](NC(=O)[C@@H](N)CCSC)[C@@H](C)O)C(C)C)[C@@H](C)CC)C(=O)N[C@@H](CCCNC(=N)N)C(=O)N[C@@H](CC(=O)O)C(=O)N[C@@H](CC(=O)O)C(=O)N[C@@H](CO)C(=O)N[C@@H](CCC(=O)O)C(=O)N2)NC(=O)[C@H](CC(C)C)NC(=O)[C@H](CCCNC(=N)N)NC(=O)[C@H]([C@@H](C)O)NC1=O [LEAP2, liver-expressed antimicrobial peptide 2] (H-MTPFWRGVSLRPIGASCRDDSECITRLCRKRRCSLSVAQE-OH; disulfide 17-28, 23-33 (inferred); N-terminus and C-terminus assumed)
- Acyl ghrelin Baseline (healthy men [1]; [6]): 0.155 ± 0.011 ng/mL
- Acyl ghrelin AUC (healthy men [1]; [7]): 31.2 ± 1.94 ng·min/mL
- Acyl ghrelin AUC0–60 min (healthy men [1]; [8]): 9.50 ± 0.67 ng·min/mL
- Acyl ghrelin Nadir (healthy men [1]; [9]): 0.088 ± 0.006 ng/mL
- Acyl ghrelin AUC60–255 min (healthy men [1]; [10]): 21.7 ± 1.33 ng·min/mL
- Acyl ghrelin Postprandial baseline (healthy men [1]; [11]): 0.161 ± 0.012 ng/mL
- Acetaminophen Peak (healthy men [2]; [12]): 65.1 ± 2.52 µmol/L
- Acetaminophen Time to peak (healthy men [2]; [12]): 209 ± 6.34 min
- gastric emptying rate of a liquid mixed meal (healthy men [2]; by plasma acetaminophen, vs placebo): does not alter gastric emptying rate
- plasma glucose mean concentration during the pharmacokinetic study (healthy men [3]; healthy fasting men n = 8, -30 to 270 min, LEAP2 infusion 0 to 120 min): 4.85 ± 0.02 mmol/L
- VAS comfort (healthy men [3]; [13]): 78 (72–90) mm
- VAS fullness (healthy men [3]; [13]): 21 (12–31) mm
- VAS prospective food consumption (healthy men [3]; [13]): 73 (65–82) mm
- VAS satiety (healthy men [3]; [13]): 22 (14–33) mm
- VAS thirst (healthy men [3]; [13]): 78 (71–89) mm
- VAS hunger (healthy men [3]; healthy fasting men n = 8, every 30 min from -30 to 270 min, LEAP2 infusion 0 to 120 min, median (interquartile range)): 72 (59–79) mm
- C-peptide Baseline (healthy men [4]; [6]): 360 ± 21.4 pmol/L
- Insulin Baseline (healthy men [4]; [6]): 36.4 ± 1.70 pmol/L
- C-peptide AUC (healthy men [4]; [7]): 218 ± 11.7 nmol·min/L
- Insulin AUC (healthy men [4]; [7]): 33.8 ± 2.63 nmol·min/L
- C-peptide AUC0–60 min (healthy men [4]; [8]): 22.5 ± 1.18 nmol·min/L
- Insulin AUC0–60 min (healthy men [4]; [8]): 2.39 ± 0.09 nmol·min/L
- C-peptide Peak (healthy men [4]; [9]): 1,524 ± 106 pmol/L
- C-peptide Time to peak (healthy men [4]; [9]): 136 ± 9.01 min
- Insulin Peak (healthy men [4]; [9]): 347 ± 38.6 pmol/L
- Insulin Time to peak (healthy men [4]; [9]): 110 ± 6.28 min
- C-peptide AUC60–255 min (healthy men [4]; [10]): 196 ± 11.2 nmol·min/L
- Insulin AUC60–255 min (healthy men [4]; [10]): 31.5 ± 2.60 nmol·min/L
- C-peptide Postprandial baseline (healthy men [4]; [11]): 365 ± 20.2 pmol/L
- Insulin Postprandial baseline (healthy men [4]; [11]): 38.6 ± 2.09 pmol/L
- Growth hormone Baseline (healthy men [5]; [6]): 0.594 ± 0.300 ng/mL
- Growth hormone AUC (healthy men [5]; [7]): 33.8 ± 11.8 ng·min/mL
- Growth hormone AUC0–60 min (healthy men [5]; [8]): 20.2 ± 9.76 ng·min/mL
- Growth hormone Nadir (healthy men [5]; [9]): 0.042 ± 0.004 ng/mL
- Growth hormone Time to nadir (healthy men [5]; [9]): 116 ± 17.2 min
- Growth hormone AUC60–255 min (healthy men [5]; [10]): 13.6 ± 2.32 ng·min/mL
- Growth hormone Postprandial baseline (healthy men [5]; [11]): 0.121 ± 0.048 ng/mL
